Experimental findings from patent EP4810052A2, “HCRHR2 SELECTIVE POLYPEPTIDES” (Gubra A/S, priority 2023, dated 2026) are described below.

Starred links: 1 amine or outer side, 2 acyl side, 3 side chain; linkers in the order of their positions; H or OH if unused. Non-standard residues stand in square brackets, D forms with d. Residues, ends and D or L forms follow the SMILES beside them. Groups on a side chain read outwards from the residue. *: point of attachment. C20 diacid = O=C(O)CCCCCCCCCCCCCCCCCCC(=O)*; γGlu = O=C(O)[C@H](CCC(=O)[*:2])N[*:1]; Nle = CCCC[C@H](N)C(=O)O; AEEA = NCCOCCOCC(=O)O; Aib = CC(C)(N)C(=O)O

For orientation: EC50 means the concentration that produces a half-maximal response.

A short description of series [1]: Dynamic Light Scattering (DLS) of peptide oligomerisation/particle formation. The class given is physicochemical. The note with it: average of three replica. On the procedure: Samples were prepared by dissolving 800 nmol of each peptide in 400 µl 50 mM phosphate pH 8.0 to a concentration of 2000 µM (ca 10 mg/ml). After fully dissolution for 2 hours on a rocking table, samples were adjusted to pH 7.5 and filtrated through a 0.2 µm Whatman Anotop filter. Comparators were commercially available liraglutide drug product (Victoza®, Novo Nordisk) pH 8.2, and an aliquot of this drug product adjusted to pH 6.7. These samples were filtrated through a 0.02 µm Whatman Anotop filter.
Samples were pipetted as triplicate of 30 µl to an Aurora 384 well microtiter plate, which was centrifuged for 2 minutes at 2200 rpm and then sealed with a Thermo sealing tape 235307. DLS measurements were done in a Wyatt DynaPro platereader III with the following parameters:
The microtiter plate was incubated in a Grant-bio Thermo Shaker PHMP-4 at 40°C with 700 rpm continuous shaking before subsequent DLS measurements. Data analysis was done using Wyatt Dynamics software ver. 7.10.1.21.
Samples were prepared and measured as described in procedure. The hydrodynamic radii (Rh) and associated polydispersity (PD) resulting from cumulant analysis (assuming one species) are shown in the Table 8 as averages of three replica. T0 indicates the measurement at time zero after sample preparation; T5 indicates the measurements of five days of incubation as described above.

Series [2] deals with T1, hCRHR2 (Homo sapiens, UniProt Q13324).
T1 sequence (Q13324 1-411): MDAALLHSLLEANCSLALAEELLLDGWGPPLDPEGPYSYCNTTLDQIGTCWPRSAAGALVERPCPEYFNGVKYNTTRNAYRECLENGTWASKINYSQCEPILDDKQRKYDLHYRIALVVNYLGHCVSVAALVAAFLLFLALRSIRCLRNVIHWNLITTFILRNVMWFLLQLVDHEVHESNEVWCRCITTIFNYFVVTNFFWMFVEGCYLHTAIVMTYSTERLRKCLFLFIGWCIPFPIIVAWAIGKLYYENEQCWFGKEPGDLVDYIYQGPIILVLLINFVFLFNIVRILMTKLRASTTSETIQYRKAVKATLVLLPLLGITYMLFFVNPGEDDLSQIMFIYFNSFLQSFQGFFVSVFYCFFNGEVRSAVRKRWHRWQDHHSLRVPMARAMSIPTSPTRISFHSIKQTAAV
As to the kind of experiment: HTRF cAMP assay, determination of hCRHR2 potency (peptide libraries 5 conc., purified peptides 11 conc.). The series is classed as cell-based. The procedure, abridged:
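Agonist peptides are added to suspended, freshly thawed CHO-K1 cells that stably carry the human receptor. Intracellular cAMP competes with d2-cAMP for a cryptate-tagged antibody, lowering the FRET signal. A variable-slope sigmoid curve is fitted to obtain EC50.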

The target of series [3] is T2, hCRHR1 (Homo sapiens, UniProt P34998).
T2 sequence (P34998 24-415): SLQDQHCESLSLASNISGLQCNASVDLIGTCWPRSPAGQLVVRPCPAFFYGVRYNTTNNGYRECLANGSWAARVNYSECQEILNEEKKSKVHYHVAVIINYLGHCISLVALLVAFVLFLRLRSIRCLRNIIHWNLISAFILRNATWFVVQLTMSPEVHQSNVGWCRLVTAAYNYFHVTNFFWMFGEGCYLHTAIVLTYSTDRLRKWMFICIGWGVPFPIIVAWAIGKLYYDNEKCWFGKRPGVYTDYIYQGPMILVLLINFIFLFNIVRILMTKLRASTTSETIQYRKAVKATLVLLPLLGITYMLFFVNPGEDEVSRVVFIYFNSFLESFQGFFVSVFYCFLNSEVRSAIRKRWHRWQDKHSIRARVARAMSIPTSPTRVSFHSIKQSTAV
Kind of series: HTRF cAMP assay, determination of hCRHR1 potency (peptide libraries 5 conc., purified peptides 11 conc.). The note with it: Table 5, purified peptides; read-out: hCRHR1 EC50. The series is classed as cell-based. In short, it runs like this: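 CHO-K1 cells stably expressing human CRHR1, thawed from frozen stocks just before use, were stimulated in suspension with agonist peptides. cAMP was measured by HTRF competitive immunoassay (cryptate anti-cAMP antibody vs d2-cAMP).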

A short description of series [4]: Thioflavin T fibril formation assay of purified peptides. The class given is physicochemical. Further details: key: Amyloid fibril formation detected by an increase in ThT fluorescence was denoted with "Yes"; samples without increasing ThT fluorescence hence not forming amyloid fibrils were denoted "No". To be noted: pH 7.5. The procedure, abridged: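 Compounds at 200 µM in 50 mM phosphate buffer at the stated pH values, or at 200 µM in semaglutide drug product adjusted to pH 7.4, with 4 µM ThT final. Fibrillation followed as ThT fluorescence (ex 450/em 480 nm) over 96 h at 40°C, with 5 min shaking at 700 rpm alternating with 5 min rest; triplicates.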

Series [5] in a line: Chemical stability of purified peptides (RP-UHPLC main peak purity loss). The note with it: 40°C. The series is classed as physicochemical. The procedure, abridged: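 Peptides at about 1.0 mg/ml in 50 mM phosphate buffer pH 7.5, or pH-adjusted for the pH series, were incubated at 40 °C for 14 and 28 days. Main-peak purity was taken as main-peak area over total area by RP-UHPLC (UV 215 nm, C8, 50 °C). Purity loss was calculated versus T0.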

A short description of series [6]: PK in rats. To be noted: Rat. Further details: T½ / MRT: unit not given here. The class given is in vivo. As for the experimental part: Lean male Sprague Dawley rats (RJHan:SD) were obtained from JanVier (JanVier Labs, France) at 7 weeks of age. The animals were pair housed until randomization under a 12/12 h dark-light cycle, light off at 3 PM. Room temperature was controlled to 22°C ± 1°C, with 60 % ± 20% humidity.
Animals had ad libitum access to regular rodent chow (Altromin 1324, Brogaarden, Denmark) and tap water.
After 2 weeks of acclimatization, the animals were single housed and randomized into treatment groups (n = 3 per group) based on body weight on study day -3. On study day 1, animals were dosed 50 nmol/kg IV and SC in combination of two peptides. Plasma samples were collected for PK analysis at times 0.17, 1, 3, 6, 24, 30, 48, 72 and 96 hours post dosing. Plasma samples were analyzed using LC-MSMS and PK parameters were estimated by Non-Compartmental Analysis (NCA).

The conditions of series [7]: pH 7.5.
Method: Solubility was tested in the following vehicles: 100 mM phosphate buffer facilitating a target pH of 6.5, 7.0, and 7.5. Samples were directly dissolved in Mini-UniPrep Syringeless Filter 0.45 µm unit (Whatman). For the desired concentration, such as a concentration of 4000 µM (approximately 20 mg/mL), 1600 nmol peptide was dissolved in 400 µL vehicle. Samples were incubated for at least 1 h at room temperature on a rocking table. The pH was measured and adjusted. Samples were left on the rocking table for an additional hour before a second pH measurement and adjustment. Visual inspection was performed and noted before the filter was pushed. The concentration of peptide in the filtrate was determined using CAD (Charged Aerosol Detection), double determination was done for each sample. The measured concentration was reported in µM. Furthermore, the pH of the filtrate was measured and reported. Peptides with a measured concentration within +/-20% of target concentration are considered fully soluble.
Compounds were dissolved to a nominal concentration of 4000 µM and analysed as described above. Samples with phenol contained 5.0 mg/ml phenol.
Where [8] appears, read: T0, time zero after sample preparation.
[9] abbreviates: T5, five days incubation at 40°C with continuous shaking.

In the case of liraglutide, in series [1] (setting [8]), the “PD (%)” value stood at 6.0% and the “Rh (nm)” value is listed as 2.5 nm. In series [1] (setting [9]), the “PD (%)” value is “Multimodal” and the “Rh (nm)” value amounted to 5.6 nm.
Take Liraglutide pH 8.2: in series [1] (setting [8]), the “PD (%)” value was found to be 1.4% and the “Rh (nm)” value was 2.1 nm. Further, in series [1] (setting [9]), the “PD (%)” value is 3.8% and the “Rh (nm)” value is reported as 2.1 nm.
For `CCCC[C@H](NC(=O)[C@@H](NC(=O)[C@H](CCC(=O)O)NC(=O)C(C)(C)NC(=O)[C@H](CC(N)=O)NC(=O)[C@@H](NC(=O)[C@H](CCCCNC(=O)COCCOCCNC(=O)COCCOCCNC(=O)CC[C@H](NC(=O)CC[C@H](NC(=O)CCCCCCCCCCCCCCCCCCC(=O)O)C(=O)O)C(=O)O)NC(=O)[C@H](C)NC(=O)[C@H](CCC(N)=O)NC(=O)[C@H](CCC(=O)O)NC(=O)[C@H](CCCNC(=N)N)NC(=O)[C@H](C)NC(=O)[C@H](C)NC(=O)[C@H](CCCNC(=N)N)NC(=O)[C@H](C)NC(=O)[C@H](CCCNC(=N)N)NC(=O)[C@H](C)NC(=O)[C@H](CCC(N)=O)NC(=O)[C@H](CO)NC(=O)[C@H](CC(C)C)NC(=O)[C@H](CC(C)C)NC(=O)[C@@H](NC(=O)[C@H](CCC(N)=O)NC(=O)[C@H](CC(C)C)NC(=O)[C@H](CC(C)C)NC(=O)CNC(=O)[C@@H](NC(=O)[C@@H]1CCCN1C(=O)[C@@H](NC(=O)[C@H](CC(=O)O)NC(=O)[C@H](CC(C)C)NC(=O)[C@H](CO)NC(=O)[C@H](CC(C)C)NC(=O)[C@@H](NC(=O)[C@@H](N)[C@@H](C)CC)C(C)C)C(C)C)[C@@H](C)CC)[C@@H](C)CC)[C@@H](C)O)[C@@H](C)CC)C(=O)N[C@@H](C)C(=O)N[C@@H](CCC(=O)O)C(=O)N[C@H](C(N)=O)C(C)C` [compound 234] (H-IVLSLDVPIGLLQILLSQARARAAREQAK([AEEA-AEEA-γGlu-γGlu-C20 diacid])TN[Aib]EI[Nle]AEV-NH2), in series [2] (Table 5), the “Selectivity ratio (hCRHR1/ hCRHR2)” value is on record as over 6250. Moreover, the concentration giving a half-maximal response (EC50) in series [2] (Table 5, purified peptides, read-out: hCRHR2 EC50) is 0.8 nM; in series [3], over 5000 nM. Moreover, in series [4], the “Fibrillation (pH 7.5)” value is reported as “No”. In addition, the “Chemical stability at pH 7.5 after 14 days at 40°C (% degradation)” value in series [5] (pH 7.5, 14 days) was -0.43%. For the same compound, in series [5] (pH 7.5, 28 days), the “Chemical stability at pH 7.5 after 28 days at 40°C (% degradation)” value is given as -1.1%. For the same compound, in series [6], the MRT came to 5.1. Further, in series [6], the T½ is given as 4.1. For the same compound, the “Solubility pH 7.5, target conc. =10 mg/mL (measured mg/mL)” value in series [7] stood at 11 mg/mL.
